ChEMBL document CHEMBL1909046, “DrugMatrix in vitro pharmacology data”

Tests used:
Interstitial collagenase = target: T1, Interstitial collagenase (Homo sapiens, UniProt P03956); assay type: tissue-based, Rheumatoid synovial fibroblasts;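 also: MMP-1 enzyme inhibition assay using a peptide substrate; in other assays of this panel Not Active means under 50% inhibition at 10 µM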
T1 sequence (P03956 whole entry): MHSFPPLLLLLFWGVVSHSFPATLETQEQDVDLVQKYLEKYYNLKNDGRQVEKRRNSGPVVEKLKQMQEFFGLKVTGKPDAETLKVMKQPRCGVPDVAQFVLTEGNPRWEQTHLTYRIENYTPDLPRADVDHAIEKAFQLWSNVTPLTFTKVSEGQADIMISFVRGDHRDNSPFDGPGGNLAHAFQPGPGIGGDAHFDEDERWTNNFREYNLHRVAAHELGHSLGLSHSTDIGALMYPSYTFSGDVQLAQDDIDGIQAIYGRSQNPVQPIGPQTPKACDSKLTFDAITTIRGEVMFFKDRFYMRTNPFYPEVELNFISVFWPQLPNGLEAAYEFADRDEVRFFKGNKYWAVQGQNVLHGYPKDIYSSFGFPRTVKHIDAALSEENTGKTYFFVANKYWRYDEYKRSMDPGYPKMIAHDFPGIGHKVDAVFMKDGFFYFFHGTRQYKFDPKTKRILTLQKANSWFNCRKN

[1] = target: Tyrosine-protein kinase Fyn (Homo sapiens, UniProt P06241); assay: biochemical; assay type: cell-based, Insect cells;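 also: enzymatic inhibition of Fyn kinase activity measured with Poly(Glu:Tyr) as the phosphorylation substrate; in other assays of this panel Not Active means under 50% inhibition at 10 µM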
Tyrosine-protein kinase Fyn, sequence (P06241 whole entry): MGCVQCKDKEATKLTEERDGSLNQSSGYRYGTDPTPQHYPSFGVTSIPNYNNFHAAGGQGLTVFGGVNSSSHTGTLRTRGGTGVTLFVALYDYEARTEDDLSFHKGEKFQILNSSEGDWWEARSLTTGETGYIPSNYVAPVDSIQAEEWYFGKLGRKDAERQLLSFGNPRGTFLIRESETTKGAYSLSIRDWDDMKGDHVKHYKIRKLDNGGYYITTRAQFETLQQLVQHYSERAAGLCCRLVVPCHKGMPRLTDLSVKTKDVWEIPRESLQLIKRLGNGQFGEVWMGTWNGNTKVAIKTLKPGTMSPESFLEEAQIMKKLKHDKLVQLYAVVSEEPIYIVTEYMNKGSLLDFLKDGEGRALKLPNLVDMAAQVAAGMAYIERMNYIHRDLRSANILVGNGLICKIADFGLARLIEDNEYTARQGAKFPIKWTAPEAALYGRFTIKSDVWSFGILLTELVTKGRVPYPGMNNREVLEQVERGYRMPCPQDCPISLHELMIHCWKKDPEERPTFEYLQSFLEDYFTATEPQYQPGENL

[2] = target: Protein kinase C alpha type (Homo sapiens, UniProt P17252); assay type: cell-based; details: sf9;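 also: inhibition of PKCalpha kinase activity measured in an enzyme assay with histone as the phosphorylation substrate; in other assays of this panel Not Active means under 50% inhibition at 10 µM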
[3] = target: 5-hydroxytryptamine receptor 1B (Rattus norvegicus, UniProt P28564); assay type: cell membranes, Wistar, Cerebral cortex, Membrane; details: for Ki: read-out: Ki; as to all read-outs here: in other assays of this panel Not Active means under 50% inhibition at 10 µM
5-hydroxytryptamine receptor 1B, sequence (P28564 whole entry): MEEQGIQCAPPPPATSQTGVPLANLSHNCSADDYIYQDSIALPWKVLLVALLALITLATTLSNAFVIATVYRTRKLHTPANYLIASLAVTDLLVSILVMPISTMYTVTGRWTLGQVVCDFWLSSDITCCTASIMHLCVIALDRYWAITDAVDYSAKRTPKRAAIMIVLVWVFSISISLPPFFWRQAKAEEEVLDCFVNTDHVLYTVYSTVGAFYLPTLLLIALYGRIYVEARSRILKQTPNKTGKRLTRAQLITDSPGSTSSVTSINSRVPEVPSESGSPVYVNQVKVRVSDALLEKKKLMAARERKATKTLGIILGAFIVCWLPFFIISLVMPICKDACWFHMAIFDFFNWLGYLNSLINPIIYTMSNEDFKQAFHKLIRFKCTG

[4] = target: T2, Neuropeptide Y receptor type 2 (Homo sapiens, UniProt P49146); assay type: cell membranes, Membrane; details: kan-ts; also: in other assays of this panel Not Active means under 50% inhibition at 10 µM
T2 sequence (P49146 whole entry): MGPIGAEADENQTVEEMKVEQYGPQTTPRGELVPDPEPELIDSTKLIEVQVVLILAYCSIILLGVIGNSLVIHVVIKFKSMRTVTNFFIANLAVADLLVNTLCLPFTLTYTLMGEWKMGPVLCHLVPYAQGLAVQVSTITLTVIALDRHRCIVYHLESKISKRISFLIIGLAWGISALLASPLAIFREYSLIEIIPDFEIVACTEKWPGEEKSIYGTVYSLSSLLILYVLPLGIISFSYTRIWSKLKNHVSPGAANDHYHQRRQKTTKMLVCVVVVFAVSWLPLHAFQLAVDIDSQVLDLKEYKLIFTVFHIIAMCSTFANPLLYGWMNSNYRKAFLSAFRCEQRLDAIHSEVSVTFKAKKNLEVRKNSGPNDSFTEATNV

[5] = target: Prostaglandin G/H synthase 1 (Homo sapiens, UniProt P23219); assay: biochemical; assay type: tissue-based, Platelet; details: platelet
Prostaglandin G/H synthase 1, sequence (P23219 whole entry): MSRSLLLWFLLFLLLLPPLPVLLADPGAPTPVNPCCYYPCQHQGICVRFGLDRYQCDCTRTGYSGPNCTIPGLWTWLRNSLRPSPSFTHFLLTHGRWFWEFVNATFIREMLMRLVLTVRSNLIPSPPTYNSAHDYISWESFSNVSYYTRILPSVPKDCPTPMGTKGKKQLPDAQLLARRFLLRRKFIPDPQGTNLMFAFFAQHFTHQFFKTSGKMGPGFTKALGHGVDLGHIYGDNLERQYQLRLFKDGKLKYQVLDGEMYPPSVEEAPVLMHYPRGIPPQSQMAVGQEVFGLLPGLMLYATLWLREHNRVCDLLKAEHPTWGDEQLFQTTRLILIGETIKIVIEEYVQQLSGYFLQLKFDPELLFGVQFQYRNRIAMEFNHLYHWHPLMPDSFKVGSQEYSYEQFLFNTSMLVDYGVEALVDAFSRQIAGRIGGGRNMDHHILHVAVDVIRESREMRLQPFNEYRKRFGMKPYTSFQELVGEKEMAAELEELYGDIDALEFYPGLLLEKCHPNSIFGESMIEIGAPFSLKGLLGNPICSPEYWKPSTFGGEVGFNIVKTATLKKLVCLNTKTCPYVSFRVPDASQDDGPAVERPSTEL

[6] = DRUGMATRIX: GABAA, Flunitrazepam, Central radioligand binding (ligand: [3H] Flunitrazepam); assay type: cell membranes, Rattus norvegicus, Wistar, Brain, Membrane; details: Not Active = under 50% inhibition at 10 µM

CCS(=O)(=O)CCn1c([N+](=O)[O-])cnc1C [TINIDAZOLE]
Not Active: IC50 (Interstitial collagenase) | IC50 ([1]; insect cells) | IC50 [2] | IC50 [3] | IC50 [4] | IC50 [5] | IC50 [6] | Ki [6]

Nc1nc2c(c(=O)[nH]1)N(C=O)C(CNc1ccc(C(=O)N[C@@H](CCC(=O)O)C(=O)O)cc1)CN2 (stereo partly specified) [LEUCOVORIN]
Not Active: IC50 (Interstitial collagenase) | IC50 ([1]; insect cells) | IC50 [2] | IC50 [3] | IC50 [4] | IC50 [5] | IC50 [6] | Ki [6]

CC(=O)O[C@H]1C[C@@H]2CC[C@@H]3[C@H](CC[C@@]4(C)[C@H]3C[C@H]([N+]3(C)CCCCC3)[C@@H]4OC(C)=O)[C@@]2(C)C[C@@H]1N1CCCCC1.[Br-] [VECURONIUM BROMIDE]
Not Active: IC50 (Interstitial collagenase) | IC50 ([1]; insect cells) | IC50 [2] | IC50 [3] | IC50 [4] | IC50 [5] | IC50 [6] | Ki [6]

C[C@@H](O)[C@H]1C(=O)N2C(C(=O)O)=C(S[C@@H]3CN[C@H](C(=O)N(C)C)C3)[C@H](C)[C@H]12 [MEROPENEM]
Not Active: IC50 (Interstitial collagenase) | IC50 ([1]; insect cells) | IC50 [2] | IC50 [3] | IC50 [4] | IC50 [5] | IC50 [6] | Ki [6]

Cc1cn([C@H]2C[C@H](N=[N+]=[N-])[C@@H](CO)O2)c(=O)[nH]c1=O [ZIDOVUDINE]
Not Active: IC50 (Interstitial collagenase) | IC50 ([1]; insect cells) | IC50 [2] | IC50 [3] | IC50 [4] | IC50 [5] | IC50 [6] | Ki [6]

COc1cc(N)nc2[nH]c(-c3ccc(F)cc3)c(-c3ccncc3)c12
Not Active: IC50 (Interstitial collagenase) | IC50 ([1]; insect cells) | IC50 [2] | IC50 [3] | IC50 [4] | IC50 [5] | IC50 [6] | Ki [6]

CN1C2CCCC1CC(NC(=O)c1nn(C)c3ccccc13)C2 (stereo unspecified) [GRANISETRON]
Not Active: IC50 (Interstitial collagenase) | IC50 ([1]; insect cells) | IC50 [2] | IC50 [3] | IC50 [4] | IC50 [5]

CNS(=O)(=O)Cc1ccc2[nH]cc(CCN(C)C)c2c1
Not Active: IC50 (Interstitial collagenase) | IC50 ([1]; insect cells) | IC50 [2] | IC50 [4] | IC50 [5] | IC50 [6] | Ki [6]

CC(C)OC(=O)C(C)(C)Oc1ccc(C(=O)c2ccc(Cl)cc2)cc1 [FENOFIBRATE]
Not Active: IC50 (Interstitial collagenase) | IC50 ([1]; insect cells) | IC50 [2] | IC50 [3] | IC50 [4] | IC50 [5]

OCCN1CCN(CCCN2c3ccccc3Sc3ccc(C(F)(F)F)cc32)CC1 [FLUPHENAZINE]
7.99 µM: IC50 ([1]; read-out: IC50)
Not Active: IC50 (Interstitial collagenase) | IC50 [2] | IC50 [4] | IC50 [5]
1.91 µM: IC50 ([3]; read-out: IC50)
0.869 µM: Ki [3]

CC[C@@H](CO)NC(=O)[C@@H]1C=C2c3cccc4c3c(cn4C)C[C@H]2N(C)C1 [METHYSERGIDE]
Not Active: IC50 (Interstitial collagenase) | IC50 ([1]; insect cells) | IC50 [2] | IC50 [4] | IC50 [5]
0.177 µM: IC50 ([3]; read-out: IC50)
0.108 µM: Ki [3]

CC(=O)Nc1nnc(S(N)(=O)=O)s1 [ACETAZOLAMIDE]
Not Active: IC50 (Interstitial collagenase) | IC50 ([1]; insect cells) | IC50 [2] | IC50 [3] | IC50 [4] | IC50 [5]

CCN(CC)CC#CCOC(=O)C(O)(c1ccccc1)C1CCCCC1 (stereo unspecified) [OXYBUTYNIN]
Not Active: IC50 (Interstitial collagenase) | IC50 ([1]; insect cells) | IC50 [2] | IC50 [3] | IC50 [4] | IC50 [5]

O=c1[nH]c2ccccc2n1CCCN1CCC(n2c(=O)[nH]c3cc(Cl)ccc32)CC1 [DOMPERIDONE]
Not Active: IC50 (Interstitial collagenase) | IC50 ([1]; insect cells) | IC50 [2] | IC50 [3] | IC50 [4] | IC50 [5]

O=c1n(CCCN2CCN(c3cccc(Cl)c3)CC2)nc2ccccn12 [TRAZODONE]
1.36 µM: IC50 ([3]; read-out: IC50)
0.83 µM: Ki [3]
Not Active: IC50 (Interstitial collagenase) | IC50 ([1]; insect cells) | IC50 [2] | IC50 [4] | IC50 [5]
